{"source": "patent US10351546B2", "about": "“Pyridin-3-yl acetic acid derivatives as inhibitors of human immunodeficiency virus replication” (priority 2015, dated 2019)", "note": "pEC50: −log10 of the molar value.", "data": [{"tested_on": "NL-RLuc virus", "assay": "Inhibition of HIV replication (NL-RLuc luciferase reporter virus in MT-2 cells)", "format": "cell-based", "conditions": "Human immunodeficiency virus 1, MT2, 120 h, read-out: Activity", "procedure,_shortened": "(§1)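 MT-2 cells were infected with NL4-3-derived virus carrying Renilla luciferase in place of part of nef, in RPMI/10% FBS, with serial compound dilutions. Luciferase read after 5 days of multicycle replication. EC50 from the median effect equation, at least 2 experiments.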", "values": [{"smiles": "Cc1nc(CNC2COC2)c(-c2ccc(OCCc3ccc(F)cc3)cc2)c(N2CCC(C)(C)CC2)c1[C@H](OC(C)(C)C)C(=O)O", "note": "[Example 77, (S)-2-(tert-Butoxy)-2-(4-(4,4-dimethylpiperidin-1-yl)-5-(4-(4-fluorophenethoxy)phenyl)-2-methyl-6-((oxetan-3-ylamino)methyl)pyridin-3-yl)acetic acid]", "pEC50": "> 7.00"}, {"smiles": "Cc1nc(CNCc2cocn2)c(-c2ccc(OCCc3ccc(F)cc3)cc2)c(N2CCC(C)(C)CC2)c1[C@H](OC(C)(C)C)C(=O)O", "note": "[Example 78, (S)-2-(tert-Butoxy)-2-(4-(4,4-dimethylpiperidin-1-yl)-5-(4-(4-fluorophenethoxy)phenyl)-2-methyl-6-(((oxazol-4-ylmethyl)amino)methyl)pyridin-3-yl)acetic acid]", "pEC50": "> 7.00"}, {"smiles": "Cc1nc(CN2CCSCC2)c(-c2ccc(OCCc3ccc(F)cc3)cc2)c(N2CCC(C)(C)CC2)c1[C@H](OC(C)(C)C)C(=O)O", "note": "[Example 79, (S)-2-(tert-Butoxy)-2-(4-(4,4-dimethylpiperidin-1-yl)-5-(4-(4-fluorophenethoxy)phenyl)-2-methyl-6-(thiomorpholinomethyl)pyridin-3-yl)acetic acid]", "pEC50": "> 7.00"}, {"smiles": "Cc1nc(CN2CCCCC2)c(-c2ccc(OCCc3ccc(F)cc3)cc2)c(N2CCC(C)(C)CC2)c1[C@H](OC(C)(C)C)C(=O)O", "note": "[Example 80, (S)-2-(tert-Butoxy)-2-(4-(4,4-dimethylpiperidin-1-yl)-5-(4-(4-fluorophenethoxy)phenyl)-2-methyl-6-(piperidin-1-ylmethyl)pyridin-3-yl)acetic acid]", "pEC50": "> 7.00"}, {"smiles": "Cc1nc(CN2CCC2)c(-c2ccc(OCCc3ccc(F)cc3)cc2)c(N2CCC(C)(C)CC2)c1[C@H](OC(C)(C)C)C(=O)O", "note": "[Example 81, (S)-2-(6-(Azetidin-1-ylmethyl)-4-(4,4-dimethylpiperidin-1-yl)-5-(4-(4-fluorophenethoxy)phenyl)-2-methylpyridin-3-yl)-2-(tert-butoxy)acetic acid]", "pEC50": "> 7.00"}, {"smiles": "Cc1nc(CN2CCC3(CCC3)CC2)c(-c2ccc(OCCc3ccc(F)cc3)cc2)c(N2CCC(C)(C)CC2)c1[C@H](OC(C)(C)C)C(=O)O", "note": "[Example 82, (S)-2-(6-(7-Azaspiro[3.5]nonan-7-ylmethyl)-4-(4,4-dimethylpiperidin-1-yl)-5-(4-(4-fluorophenethoxy)phenyl)-2-methylpyridin-3-yl)-2-(tert-butoxy)acetic acid]", "pEC50": "> 7.00"}, {"smiles": "Cc1nc(CN2CCS(=O)(=O)CC2)c(-c2ccc(OCCc3ccc(F)cc3)cc2)c(N2CCC(C)(C)CC2)c1[C@H](OC(C)(C)C)C(=O)O", "note": "[Example 83, (S)-2-(tert-Butoxy)-2-(4-(4,4-dimethylpiperidin-1-yl)-6-((1,1-dioxidothiomorpholino)methyl)-5-(4-(4-fluorophenethoxy)phenyl)-2-methylpyridin-3-yl)acetic acid]", "pEC50": "> 7.00"}, {"smiles": "Cc1nc(CN(C)CC2CCOCC2)c(-c2ccc(OCCc3ccc(F)cc3)cc2)c(N2CCC(C)(C)CC2)c1[C@H](OC(C)(C)C)C(=O)O", "note": "[Example 84, (S)-2-(tert-Butoxy)-2-(4-(4,4-dimethylpiperidin-1-yl)-5-(4-(4-fluorophenethoxy)phenyl)-2-methyl-6-((methyl((tetrahydro-2H-pyran-4-yl)methyl)amino)methyl)pyridin-3-yl)acetic acid]", "pEC50": "> 7.00"}, {"smiles": "COC1CCN(Cc2nc(C)c([C@H](OC(C)(C)C)C(=O)O)c(N3CCC(C)(C)CC3)c2-c2ccc(OCCc3ccc(F)cc3)cc2)CC1", "note": "[Example 85, (S)-2-(tert-Butoxy)-2-(4-(4,4-dimethylpiperidin-1-yl)-5-(4-(4-fluorophenethoxy)phenyl)-6-((4-methoxypiperidin-1-yl)methyl)-2-methylpyridin-3-yl)acetic acid]", "pEC50": "> 7.00"}, {"smiles": "Cc1nc(CN2CCC(F)(F)CC2)c(-c2ccc(OCCc3ccc(F)cc3)cc2)c(N2CCC(C)(C)CC2)c1[C@H](OC(C)(C)C)C(=O)O", "note": "[Example 86, (S)-2-(tert-Butoxy)-2-(6-((4,4-difluoropiperidin-1-yl)methyl)-4-(4,4-dimethylpiperidin-1-yl)-5-(4-(4-fluorophenethoxy)phenyl)-2-methylpyridin-3-yl)acetic acid]", "pEC50": "> 7.00"}, {"smiles": "Cc1nc(CN2CCC(O)CC2)c(-c2ccc(OCCc3ccc(F)cc3)cc2)c(N2CCC(C)(C)CC2)c1[C@H](OC(C)(C)C)C(=O)O", "note": "[Example 87, (S)-2-(tert-Butoxy)-2-(4-(4,4-dimethylpiperidin-1-yl)-5-(4-(4-fluorophenethoxy)phenyl)-6-((4-hydroxypiperidin-1-yl)methyl)-2-methylpyridin-3-yl)acetic acid]", "pEC50": "> 7.00"}, {"smiles": "Cc1nc(CN2CCC(C)(C)CC2)c(-c2ccc(OCCc3ccc(F)cc3)cc2)c(N2CCC(C)(C)CC2)c1[C@H](OC(C)(C)C)C(=O)O", "note": "[Example 88, (S)-2-(tert-Butoxy)-2-(4-(4,4-dimethylpiperidin-1-yl)-6-((4,4-dimethylpiperidin-1-yl)methyl)-5-(4-(4-fluorophenethoxy)phenyl)-2-methylpyridin-3-yl)acetic acid]", "pEC50": "> 7.00"}, {"smiles": "Cc1nc(CN2CCCc3ccccc32)c(-c2ccc(OCCc3ccc(F)cc3)cc2)c(N2CCC(C)(C)CC2)c1[C@H](OC(C)(C)C)C(=O)O", "note": "[Example 89, (S)-2-(tert-Butoxy)-2-(6-((3,4-dihydroquinolin-1(2H)-yl)methyl)-4-(4,4-dimethylpiperidin-1-yl)-5-(4-(4-fluorophenethoxy)phenyl)-2-methylpyridin-3-yl)acetic acid]", "pEC50": "> 7.00"}, {"smiles": "Cc1nc(CN2CCC(F)CC2)c(-c2ccc(OCCc3ccc(F)cc3)cc2)c(N2CCC(C)(C)CC2)c1[C@H](OC(C)(C)C)C(=O)O", "note": "[Example 90, (S)-2-(tert-Butoxy)-2-(4-(4,4-dimethylpiperidin-1-yl)-5-(4-(4-fluorophenethoxy)phenyl)-6-((4-fluoropiperidin-1-yl)methyl)-2-methylpyridin-3-yl)acetic acid]", "pEC50": "> 7.00"}, {"smiles": "COc1ccccc1NCc1nc(C)c([C@H](OC(C)(C)C)C(=O)O)c(N2CCC(C)(C)CC2)c1-c1ccc(OCCc2ccc(F)cc2)cc1", "note": "[Example 91, (S)-2-(tert-Butoxy)-2-(4-(4,4-dimethylpiperidin-1-yl)-5-(4-(4-fluorophenethoxy)phenyl)-6-(((2-methoxyphenyl)amino)methyl)-2-methylpyridin-3-yl)acetic acid]", "pEC50": "> 7.00"}, {"smiles": "Cc1nc(CN2CC(C)OC(C)C2)c(-c2ccc(OCCc3ccc(F)cc3)cc2)c(N2CCC(C)(C)CC2)c1[C@H](OC(C)(C)C)C(=O)O", "note": "(stereo partly drawn) [Example 92, (2S)-2-(tert-Butoxy)-2-(6-((2,6-dimethylmorpholino)methyl)-4-(4,4-dimethylpiperidin-1-yl)-5-(4-(4-fluorophenethoxy)phenyl)-2-methylpyridin-3-yl)acetic acid]", "pEC50": "> 7.00"}, {"smiles": "COCCN(CCOC)Cc1nc(C)c([C@H](OC(C)(C)C)C(=O)O)c(N2CCC(C)(C)CC2)c1-c1ccc(OCCc2ccc(F)cc2)cc1", "note": "[Example 93, (S)-2-(6-((Bis(2-methoxyethyl)amino)methyl)-4-(4,4-dimethylpiperidin-1-yl)-5-(4-(4-fluorophenethoxy)phenyl)-2-methylpyridin-3-yl)-2-(tert-butoxy)acetic acid]", "pEC50": "> 7.00"}]}, {"tested_on": "NL-RLuc virus", "assay": "Inhibition of HIV replication (NL-RLuc luciferase reporter virus in MT-2 cells)", "format": "cell-based", "conditions": "Human immunodeficiency virus 1, MT2, 120 h, read-out: EC50 μM", "procedure,_shortened": "as §1", "units": {"EC50": "µM"}, "values": [{"smiles": "Cc1nc(CNC2COC2)c(-c2ccc(OCCc3ccc(F)cc3)cc2)c(N2CCC(C)(C)CC2)c1[C@H](OC(C)(C)C)C(=O)O", "note": "[Example 77, (S)-2-(tert-Butoxy)-2-(4-(4,4-dimethylpiperidin-1-yl)-5-(4-(4-fluorophenethoxy)phenyl)-2-methyl-6-((oxetan-3-ylamino)methyl)pyridin-3-yl)acetic acid]", "EC50": 0.067}, {"smiles": "COC1CCN(Cc2nc(C)c([C@H](OC(C)(C)C)C(=O)O)c(N3CCC(C)(C)CC3)c2-c2ccc(OCCc3ccc(F)cc3)cc2)CC1", "note": "[Example 85, (S)-2-(tert-Butoxy)-2-(4-(4,4-dimethylpiperidin-1-yl)-5-(4-(4-fluorophenethoxy)phenyl)-6-((4-methoxypiperidin-1-yl)methyl)-2-methylpyridin-3-yl)acetic acid]", "EC50": 0.001}, {"smiles": "COc1ccccc1NCc1nc(C)c([C@H](OC(C)(C)C)C(=O)O)c(N2CCC(C)(C)CC2)c1-c1ccc(OCCc2ccc(F)cc2)cc1", "note": "[Example 91, (S)-2-(tert-Butoxy)-2-(4-(4,4-dimethylpiperidin-1-yl)-5-(4-(4-fluorophenethoxy)phenyl)-6-(((2-methoxyphenyl)amino)methyl)-2-methylpyridin-3-yl)acetic acid]", "EC50": 0.018}]}]}
